# Test results taken from patent publication US20080255206A1, “Rxr Agonists and Antagonists, Alone or in Combination with Ppar Ligands, in the Treatment of Metabolic and Cardiovascular Diseases” (priority 2005, published 2008).
# pEC50, pIC50: −log10 of the molar value.
# How the values were obtained:
# [1] = target: T1, RARγ (Homo sapiens, UniProt P13631); assay: Retinoid activation assay, RARγ (COS-1 cells, SeAP reporter); format: cell-based; conditions: read-out: Activation EC50 RAR γ
# T1 sequence (P13631 185-454 limits assumed): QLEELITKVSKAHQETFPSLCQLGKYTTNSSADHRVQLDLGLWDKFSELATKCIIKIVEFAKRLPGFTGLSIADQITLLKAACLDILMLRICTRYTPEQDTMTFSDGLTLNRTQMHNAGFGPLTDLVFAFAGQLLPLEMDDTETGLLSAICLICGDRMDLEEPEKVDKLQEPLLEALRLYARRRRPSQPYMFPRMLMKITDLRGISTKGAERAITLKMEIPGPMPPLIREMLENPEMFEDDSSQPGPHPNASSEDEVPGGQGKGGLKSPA
# Experimental: (§1) Chimeric RAR cDNAs are used for transfection which contain the DNA binding region of the estrogen receptor. As reporter system, the SeAp (secreted alkaline phosphatase) gene under control of the vitellogenin estrogen response element fused to the herpes simplex thymidinkinase promoter (vit-TK-SeAP) is used. The galactosidase expression vector pCH110 serves to correct for variation in transfection efficiency. […] At the end of the incubation, the cell supernatants are assayed for SeAP activity. Results are given as EC50 (nM), the concentration leading to half-maximal activation.
# [2] = target: T2, RXRα (Homo sapiens, UniProt P19793); assay: Retinoid binding assay, RXRα; design: made in house; host or cells: E. coli; conditions: [3H] 9-cis retinoic acid 20 nM; read-out: Binding Affinity IC50 RXR α
# T2 sequence (P19793 1-462): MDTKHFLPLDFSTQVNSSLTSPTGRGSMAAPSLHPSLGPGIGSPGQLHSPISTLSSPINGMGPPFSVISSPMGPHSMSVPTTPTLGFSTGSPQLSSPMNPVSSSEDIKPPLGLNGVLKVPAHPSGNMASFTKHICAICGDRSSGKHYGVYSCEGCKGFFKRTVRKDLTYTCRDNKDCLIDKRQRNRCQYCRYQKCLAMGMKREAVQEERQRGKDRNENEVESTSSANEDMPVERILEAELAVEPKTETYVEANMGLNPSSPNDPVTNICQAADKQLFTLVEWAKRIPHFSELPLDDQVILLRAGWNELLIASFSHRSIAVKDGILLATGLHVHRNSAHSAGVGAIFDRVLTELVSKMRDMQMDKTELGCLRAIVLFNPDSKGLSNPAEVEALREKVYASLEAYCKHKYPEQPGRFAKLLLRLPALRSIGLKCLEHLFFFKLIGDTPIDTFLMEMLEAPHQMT
# Description: (§2) The DEF domains of RAR's and the full length RXR's, expressed in E.coli, are used to measure competitive retinoid binding. […] 9-cis retinoic acid (for RXR's), respectively. […] Separation of bound from free radioactivity is achieved by charcoal/dextran (RAR's) or by desalting columns (RXR's). […] Retinoid Activation Assays
# [3] = target: T3, RXRγ (Homo sapiens, UniProt P48443); assay: Retinoid binding assay, RXRγ; design: made in house; host or cells: E. coli; conditions: [3H] 9-cis retinoic acid 20 nM; read-out: Binding Affinity IC50 RXR γ
# T3 sequence (P48443 1-463): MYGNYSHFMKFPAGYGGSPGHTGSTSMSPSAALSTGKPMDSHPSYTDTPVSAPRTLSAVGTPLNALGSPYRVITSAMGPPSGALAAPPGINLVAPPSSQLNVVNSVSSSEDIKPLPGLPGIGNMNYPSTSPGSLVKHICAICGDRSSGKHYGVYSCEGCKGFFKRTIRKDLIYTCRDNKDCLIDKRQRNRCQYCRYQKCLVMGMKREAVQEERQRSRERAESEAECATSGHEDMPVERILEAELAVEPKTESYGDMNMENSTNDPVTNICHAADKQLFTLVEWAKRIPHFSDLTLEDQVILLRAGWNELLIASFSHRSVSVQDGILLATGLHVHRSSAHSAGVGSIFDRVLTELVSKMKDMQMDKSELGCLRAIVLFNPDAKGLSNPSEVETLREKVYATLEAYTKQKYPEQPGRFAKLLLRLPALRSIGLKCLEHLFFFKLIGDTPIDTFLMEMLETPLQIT
# Description: as §2
# [4] = target: T4, RARγ (Homo sapiens, UniProt P13631); assay: Retinoid binding assay, RARγ; conditions: read-out: Binding Affinity IC50 RAR γ
# T4 construct: The DEF domains of RAR's and the full length RXR's, expressed in E.coli; made in house; host or cells: E. coli
# T4 sequence (P13631 185-419 limits assumed): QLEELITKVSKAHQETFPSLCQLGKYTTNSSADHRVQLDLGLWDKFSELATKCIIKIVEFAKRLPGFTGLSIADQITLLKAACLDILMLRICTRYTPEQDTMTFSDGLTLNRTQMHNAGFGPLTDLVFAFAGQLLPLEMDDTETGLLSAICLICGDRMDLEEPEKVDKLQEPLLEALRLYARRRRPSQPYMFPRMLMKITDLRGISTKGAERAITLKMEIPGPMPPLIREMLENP
# Description: as §2
# [5] = target: T2, RXRα; assay: Retinoid activation assay, RXRα (Schneider SL-3 cells, luciferase reporter); format: cell-based; conditions: read-out: Activation EC50 RXR α
# Experimental: Full length RXR cDNA is used for transfection. As reporter system, the luciferase gene is used in a construct with three copies of a RXR response element from rat CRBP gene, (formerly RARE from betaRAR gene), fused to alcoholdehydrogenase gene promoter in the plasmid pGL2-basic. Schneider SL-3 cells from Drosophila are transiently transfected 3-4 h before the experiment by the Ca-phosphate-DNA coprecipitation method. […] At the end of the incubation, the cell supernatants are assayed for luciferase activity. Results are given as EC50 (nM), the concentration leading to half-maximal activation.
# [6] = target: T5, RARβ (Homo sapiens, UniProt P10826); assay: Retinoid activation assay, RARβ (COS-1 cells, SeAP reporter); format: cell-based; conditions: read-out: Activation EC50 RAR β
# T5 sequence (P10826 183-417 limits assumed): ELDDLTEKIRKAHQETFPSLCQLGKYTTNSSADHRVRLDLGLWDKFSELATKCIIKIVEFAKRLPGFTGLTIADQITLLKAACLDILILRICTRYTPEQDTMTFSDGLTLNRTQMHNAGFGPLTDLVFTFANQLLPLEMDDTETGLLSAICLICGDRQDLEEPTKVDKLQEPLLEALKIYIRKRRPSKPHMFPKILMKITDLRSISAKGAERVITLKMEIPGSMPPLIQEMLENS
# Experimental: as §1
# [7] = target: T5, RARβ; assay: Retinoid binding assay, RARβ; design: The DEF domains of RAR's and the full length RXR's, expressed in E.coli; made in house; host or cells: E. coli; conditions: read-out: Binding Affinity IC50 RAR β
# Description: as §2
smiles,measurement,setting,value
"CCC1(CC)CCC(C)(C)c2cc(\C(C)=C/C=C/C(C)=C/C(=O)O)ccc21 [Compound 24, (2E,4E,6Z)-7-(5,5-Diethyl-8,8-dimethyl-5,6,7,8-tetrahydro-naphthalen-2-yl)-3-methyl-octa-2,4,6-trienoic acid]",pEC50,[1],7.79
same,pIC50,[2],6.17
same,pIC50,[3],6.18
same,pIC50,[4],7.48
same,pEC50,[5],≤ 5.00
same,pEC50,[6],8.00
same,pIC50,[7],7.70
